Where two headings read alike, the source gives them in different places.
Key:
[1] = Competition experiment for crystalline forms A, C, and D in suspension; assay type: physicochemical; settings: aw 0.2-1; stirring at room temperature, 8 days; XRPD
Procedure: The starting material obtained in step 1 of Example 1 was added to the corresponding volume of solvent, and then allowed to suspend under stirring at room temperature for 2 h. The suspension was filtered with a 0.4 μm PTFE filter membrane to obtain a saturated solution. About 3 mg samples of crystalline forms A, C, and D were separately weighed and transferred to HPLC vials, to which was added 1 mL of saturated solution, and then the mixture was allowed to suspend under stirring at room temperature. After 8 days, the suspension was filtered to obtain the solid, and the change in crystalline form was identified by XRPD analysis.

[2] = assay type: physicochemical; settings: for Purity (area): HPLC
Procedure: The samples of crystalline forms A and D were stored in an opened bottle for one week under 25° C./60% RH and 40° C./75% RH conditions, respectively. The physical and chemical stability of the samples was detected by XRPD and HPLC.

[3] = Pressure stability testing (tableting at 10 kN); assay type: physicochemical; settings: 10 kN pressure; for Adhesion percentage: (ML-MT)/ML×100%; for Tensile strength T: T=2H/πDt; for Crystalline form after pressing: XRPD of crushed sample; for Tablet diameter D / Tablet thickness t: after 24 h elastic recovery; for Adhesion amount: powder adhesive to the punch; for Hardness H: radial crushing strength
Procedure: 100 mg samples of crystalline forms A and D were respectively added to […] of round flat punch, and then pressed into circular tablets using 10 kN pressure. The loading mass (ML) and tablet mass (MT) were recorded, and then the formula ma=(ML-MT)/ML×100% was used to calculate the mass percentage (ma) of the powder adhesive to the punch; the pressed tablets were kept in a dryer for 24 h for elastic recovery. After elastic recovery, the diameter (D) and thickness (t) of the tablet were measured using a vernier caliper. The radial crushing strength (hardness, H) was measured using a tablet hardness tester, and the XRPD pattern of the crushed sample was also tested.

[4] = Grinding stability testing (XRPD); assay type: physicochemical; settings: 50 mg manually ground
Procedure: 50 mg samples of crystalline form A and crystalline form D were manually ground, and then detected by XRPD.

[5] = Stability of crystalline form G on heating and on exposure after opening the cover; assay type: physicochemical; settings: cover opened and kept for 1 h
[6] = previous studies, CN2021110940333; cited from earlier work
[7] = Hygroscopicity test (dynamic vapor sorption, DVS); assay type: physicochemical
Procedure: The mass change percentage of crystalline form A was tested using dynamic vapor sorption (DVS) under constant temperature conditions of 25° C. and various humidity conditions, with a humidity change of 30% RH to 95% RH to 0% RH to 95% RH.
Crystalline form A had good physical stability.

[8] = One week, 25° C./60% RH and 40° C./75% RH

Change of crystal structure / crystalline form (physical stability) [2]	Purity (area) ([2]; Initial) [%]	Relative purity percentage (vs initial purity) ([2]; One week, 25° C./60% RH) [%]	Purity (area) ([2]; One week, 25° C./60% RH) [%]	Relative purity percentage (vs initial purity) ([2]; One week, 40° C./75% RH) [%]	Purity (area) ([2]; One week, 40° C./75% RH) [%]	Tablet mass [3] [mg]	Adhesion percentage [3] [%]	Tensile strength T [3] [MPa]	Crystalline form after pressing [3]	Tablet diameter D [3] [mm]	Tablet thickness t [3] [mm]	Adhesion amount [3] [mg]	Hardness H [3] [N]	Crystalline form after grinding [4]	Molecule	also measured
															CC(CC(=O)[O-])C1CCC2C3C(O)CC4CC(O)CCC4(C)C3CCC12C.COc1ccc2cc3[n+](cc2c1OC)CCc1cc2c(cc1-3)OCO2 (stereo not drawn) [Crystalline form C, nor-ursodeoxycholic berberine salt]	Solid form obtained after competition in suspension [1]: transition to form A
not obviously changed	98.61	99.63	98.24	99.37	97.99	96.9	3.3	1.69	remained unchanged	6.02	2.90	3.3	46.31	transformed into amorphous	CC(CC(=O)[O-])C1CCC2C3C(O)CC4CC(O)CCC4(C)C3CCC12C.COc1ccc2cc3[n+](cc2c1OC)CCc1cc2c(cc1-3)OCO2 (stereo not drawn) [Crystalline form D, nor-ursodeoxycholic berberine salt]	Purity decrease ([2]; One week, 25° C./60% RH): 0.37%; Crystallinity after storage [2, 8]: the crystallinity decreased; Sample appearance after storage [2, 8]: turned dark brown; Purity decrease ([2]; One week, 40° C./75% RH): 0.62%
															CC(CC(=O)[O-])C1CCC2C3C(O)CC4CC(O)CCC4(C)C3CCC12C.COc1ccc2cc3[n+](cc2c1OC)CCc1cc2c(cc1-3)OCO2 (stereo not drawn) [Crystalline form G, nor-ursodeoxycholic berberine salt]	Crystalline form after opening the cover [5]: turned back into form A
															nor-ursodeoxycholic berberine salt	Alanine aminotransferase (ALT) [6]: significantly reduce; Alkaline phosphatase (ALP) [6]: significantly reduce; Glutamic oxaloacetic transaminase (AST) [6]: significantly reduce; Liver pathological damage (such as hepatic steatosis) [6]: significant improvement effect; Therapeutic effect on fatty liver, liver fibrosis, and cirrhosis versus HTD1801 [6]: significantly better than that of HTD1801; Therapeutic effect on fatty liver, liver fibrosis, and cirrhosis versus individual norUDCA and berberine hydrochloride [6]: superior to the sum of the effects produced by individual norUDCA and berberine hydrochloride
the crystal structure was not changed	99.26	100.0	99.24	100.0	99.23	103.2	1.6	2.38	remained unchanged	6.02	2.90	1.7	65.37	remained unchanged	nor-ursodeoxycholic berberine salt [Crystalline form A]	Purity change (chemical stability) [2]: not changed significantly; Water adsorption rate ([7]; DVS, 25° C., 80% RH): 8.7%; Water absorption behaviour ([7]; DVS, 25° C., after the relative humidity reached 10%): slowly absorbed water; Water absorption behaviour ([7]; DVS, 25° C., relative humidity range of 0% to 10%): rapidly absorbed water; Crystalline form before and after DVS testing ([7]; XRPD after DVS): did not change; Crystallinity after grinding [4]: the crystallinity decreased

From patent US20250101058A1, “CRYSTAL FORM OF HIGH-STABILITY NOR-URSODEOXYCHOLIC BERBERINE SALT, AND PREPARATION METHOD THEREFOR” (CHENGDU BIOBEL BIOTECHNOLOGY CO., LTD, priority 2022, published 2025)
